Measurements reported in patent publication US20250188043A1 (ReproNovo SA, priority 2023, published 2025).

How the values were obtained:
[1] = Intrinsic dissolution rate; assay type: physicochemical; details: for Intrinsic DR value: 37° C., 50 rpm, 720 min
Protocol: The intrinsic dissolution rate is very low for Form A of leflutrozole, even in the presence of sodium dodecyl sulfate (SDS). The rate was determined in 0.1 N hydrochloric acid (HCl) and 0.001 N HCl.

[2] = molecular target: T1, CYP2C8 (Homo sapiens, UniProt P10632); assay: CYP inhibition, pooled human liver microsomes, probe substrates; assay type: in vitro ADME; details: up to 100 μM
T1 construct: assessed by pooled human liver microsomes using enzyme selective probe substrates; from tissue; host or cells: pooled human liver microsomes
T1 sequence (P10632 1-490): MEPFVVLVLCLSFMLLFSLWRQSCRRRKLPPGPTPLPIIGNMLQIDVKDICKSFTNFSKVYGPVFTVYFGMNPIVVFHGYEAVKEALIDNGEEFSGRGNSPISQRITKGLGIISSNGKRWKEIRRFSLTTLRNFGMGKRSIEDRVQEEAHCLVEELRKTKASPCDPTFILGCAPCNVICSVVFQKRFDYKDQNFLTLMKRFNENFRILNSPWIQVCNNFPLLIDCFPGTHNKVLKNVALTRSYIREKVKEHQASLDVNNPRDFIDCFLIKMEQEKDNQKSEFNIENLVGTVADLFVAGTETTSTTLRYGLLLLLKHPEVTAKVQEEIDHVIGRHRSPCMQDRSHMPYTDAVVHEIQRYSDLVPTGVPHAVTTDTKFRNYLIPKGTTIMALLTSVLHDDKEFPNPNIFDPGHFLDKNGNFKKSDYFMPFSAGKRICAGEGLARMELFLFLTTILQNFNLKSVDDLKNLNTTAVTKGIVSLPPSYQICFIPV

[3] = test system: obese and overweight men with hypogonadism and low total motile sperm count; assay: Randomized, double-blind phase IIb trial of oral leflutrozole; assay type: in vivo, human; details: for Semen Volume, change from baseline, LS mean difference (95% CI) vs. placebo / Sperm Morphology, change from baseline, LS mean difference (95% CI) vs. placebo / Sperm Motility, change from baseline, LS mean difference (95% CI) vs. placebo / Spermatozoa, change from baseline, LS mean difference (95% CI) vs. placebo / Total Motile Sperm Count, change from baseline, LS mean difference (95% CI) vs. placebo: Week 20; for Estradiol, Initial: baseline; for population with testosterone normalization: day 8 of treatment (2nd visit); for Estradiol, Change: to week 24; for FSH increase / estradiol decrease / mean LH increase: week 24
Protocol: The primary endpoint of the study is a change in testosterone levels after 24 weeks of treatment. […] Normalization of testosterone, for the purposes of this trial, was considered to be between 300 and 1000 ng/dL (10.4 and 35 nmol/L, respectively). Levels above 1000 ng/dL are furthermore considered abnormal.

[4] = molecular target: T2, CYP2C19 (Homo sapiens, UniProt P33261); assay: CYP inhibition, pooled human liver microsomes, probe substrates; assay type: in vitro ADME; details: up to 100 μM
T2 construct: assessed by pooled human liver microsomes using enzyme selective probe substrates; from tissue; host or cells: pooled human liver microsomes
T2 sequence (P33261 whole entry): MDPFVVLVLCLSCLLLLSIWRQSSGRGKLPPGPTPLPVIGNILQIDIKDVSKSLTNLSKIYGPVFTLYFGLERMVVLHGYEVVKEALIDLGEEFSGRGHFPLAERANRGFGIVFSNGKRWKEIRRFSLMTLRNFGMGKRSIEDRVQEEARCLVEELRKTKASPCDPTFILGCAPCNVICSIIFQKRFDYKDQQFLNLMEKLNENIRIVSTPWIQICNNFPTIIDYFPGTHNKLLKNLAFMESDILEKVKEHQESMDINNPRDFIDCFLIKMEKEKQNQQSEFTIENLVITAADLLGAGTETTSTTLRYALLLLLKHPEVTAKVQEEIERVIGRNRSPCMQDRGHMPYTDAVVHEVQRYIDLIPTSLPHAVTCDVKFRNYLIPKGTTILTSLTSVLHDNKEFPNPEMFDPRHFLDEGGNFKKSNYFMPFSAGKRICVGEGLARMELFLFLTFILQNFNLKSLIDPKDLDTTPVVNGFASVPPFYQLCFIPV

[5] = Cellular transport by Caco-2 assay; assay type: in vitro ADME, humans; details: human
Text: (§1) The ratio of B-A/A-B is 0.43.

[6] = test system: Caco-2 cell model; assay: Cellular transport by Caco-2 assay; assay type: in vitro ADME, humans
Text: as §1

[7] = molecular target: P-glycoprotein (Homo sapiens, UniProt P08183); assay: P-glycoprotein inhibition; assay type: in vitro ADME; details: at concentrations above 200 μM
P-glycoprotein, sequence (P08183 whole entry): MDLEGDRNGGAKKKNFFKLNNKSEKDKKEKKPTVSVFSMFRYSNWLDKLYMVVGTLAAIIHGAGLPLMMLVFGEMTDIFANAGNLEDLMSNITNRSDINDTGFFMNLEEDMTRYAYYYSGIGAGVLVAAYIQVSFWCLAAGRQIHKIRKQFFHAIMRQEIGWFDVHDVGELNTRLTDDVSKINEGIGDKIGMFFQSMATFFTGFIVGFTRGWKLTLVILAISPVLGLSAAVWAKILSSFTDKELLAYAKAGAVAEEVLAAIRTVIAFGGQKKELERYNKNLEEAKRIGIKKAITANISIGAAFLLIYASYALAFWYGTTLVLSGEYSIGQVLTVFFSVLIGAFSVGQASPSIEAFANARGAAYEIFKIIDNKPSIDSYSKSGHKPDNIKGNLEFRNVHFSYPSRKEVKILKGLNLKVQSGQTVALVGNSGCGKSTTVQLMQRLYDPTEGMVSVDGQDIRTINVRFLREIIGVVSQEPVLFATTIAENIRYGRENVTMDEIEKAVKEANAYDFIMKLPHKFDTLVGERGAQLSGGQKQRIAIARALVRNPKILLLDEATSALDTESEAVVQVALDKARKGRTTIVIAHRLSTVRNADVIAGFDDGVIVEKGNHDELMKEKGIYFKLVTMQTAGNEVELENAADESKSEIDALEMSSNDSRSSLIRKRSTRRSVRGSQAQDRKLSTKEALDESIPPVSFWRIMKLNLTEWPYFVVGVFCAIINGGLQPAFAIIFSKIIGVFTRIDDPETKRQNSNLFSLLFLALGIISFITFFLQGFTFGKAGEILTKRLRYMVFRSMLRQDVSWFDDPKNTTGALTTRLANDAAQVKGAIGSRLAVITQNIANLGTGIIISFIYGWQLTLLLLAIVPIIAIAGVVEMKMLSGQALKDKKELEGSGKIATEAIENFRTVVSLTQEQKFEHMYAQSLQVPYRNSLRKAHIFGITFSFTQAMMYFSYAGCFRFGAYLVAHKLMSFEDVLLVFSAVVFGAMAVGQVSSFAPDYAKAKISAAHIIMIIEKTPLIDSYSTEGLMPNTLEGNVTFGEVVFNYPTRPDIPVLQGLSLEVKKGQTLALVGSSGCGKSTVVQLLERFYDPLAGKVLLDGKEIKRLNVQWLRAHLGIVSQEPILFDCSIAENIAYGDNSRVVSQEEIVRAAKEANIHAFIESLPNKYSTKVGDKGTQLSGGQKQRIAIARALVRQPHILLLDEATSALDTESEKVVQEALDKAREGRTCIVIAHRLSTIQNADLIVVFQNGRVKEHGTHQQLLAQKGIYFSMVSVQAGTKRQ

N#Cc1ccc(C(F)(c2ccc(C#N)cc2)n2cncn2)cc1 [Form A leflutrozole, 4-[(4-cyanophenyl)-fluoro-(1,2,4-triazol-1-yl)methyl]benzonitrile]
Intrinsic DR value ([1]; HCl 0.001N + 1% SDS): 0.0167 mg/min/cm^2 | Intrinsic DR value ([1]; HCl 0.1N + 1% SDS): 0.0162 mg/min/cm^2 | intrinsic dissolution rate (in words) ([1]; even in the presence of sodium dodecyl sulfate): very low

N#Cc1ccc(C(F)(c2ccc(C#N)cc2)n2cncn2)cc1 [leflutrozole, 4-[(4-cyanophenyl)-fluoro-(1,2,4-triazol-1-yl)methyl]benzonitrile]
IC50 [2]: > 50 µM | Estradiol, Week 24 Measurement ([3]; 0.1 mg): 12.94 pg/mL | subjects with normalized testosterone (300-1000 ng/dL), number ([3]; 0.1 mg weekly, after 24 weeks): 59 subjects | Semen Volume, change from baseline, LS mean difference (95% CI) vs. placebo ([3]; 0.1 mg): 0.7 mL | Sperm Morphology, change from baseline, LS mean difference (95% CI) vs. placebo ([3]; 0.1 mg): −1.9 % | Sperm Motility, change from baseline, LS mean difference (95% CI) vs. placebo ([3]; 0.1 mg): 2.7 % | Spermatozoa, change from baseline, LS mean difference (95% CI) vs. placebo ([3]; 0.1 mg): 130.4 (−65.3, 10^6/ejaculate | Total Motile Sperm Count, change from baseline, LS mean difference (95% CI) vs. placebo ([3]; 0.1 mg): 86.3 (−24.5, 10^6/ejaculate | Estradiol, Initial ([3]; 0.1 mg): 24.69 pg/mL | population with testosterone normalization ([3]; 0.1 mg): 80.6% | Estradiol, Change ([3]; 0.1 mg): -11.75 pg/mL | FSH increase ([3]; 0.1 mg): 4.836 mlU/mL | estradiol decrease ([3]; 0.1 mg): 11.8 pg/mL | mean LH increase ([3]; 0.1 mg): 2.108 mlU/mL | Estradiol, Week 24 Measurement ([3]; 0.3 mg): 11.84 pg/mL | subjects with normalized testosterone (300-1000 ng/dL), number ([3]; 0.3 mg weekly, after 24 weeks): 62 subjects | Semen Volume, change from baseline, LS mean difference (95% CI) vs. placebo ([3]; 0.3 mg): 0.8 mL | Sperm Morphology, change from baseline, LS mean difference (95% CI) vs. placebo ([3]; 0.3 mg): −2.6 % | Sperm Motility, change from baseline, LS mean difference (95% CI) vs. placebo ([3]; 0.3 mg): −0.1 % | Spermatozoa, change from baseline, LS mean difference (95% CI) vs. placebo ([3]; 0.3 mg): 90.2 (−126.5, 10^6/ejaculate | Total Motile Sperm Count, change from baseline, LS mean difference (95% CI) vs. placebo ([3]; 0.3 mg): 54.2 (−77.3, 10^6/ejaculate | Estradiol, Initial ([3]; 0.3 mg): 24.80 pg/mL | population with testosterone normalization ([3]; 0.3 mg): 89.1% | Estradiol, Change ([3]; 0.3 mg): -12.96 pg/mL | FSH increase ([3]; 0.3 mg): 6.183 mlU/mL | estradiol decrease ([3]; 0.3 mg): 13 pg/mL | mean LH increase ([3]; 0.3 mg): 3.560 mlU/mL | Estradiol, Week 24 Measurement ([3]; 1.0 mg): 8.63 pg/mL | subjects with normalized testosterone (300-1000 ng/dL), number ([3]; 1.0 mg weekly, after 24 weeks): 63 subjects | subjects with normalized testosterone (300-1000 ng/dL), percent ([3]; 1.0 mg weekly, after 24 weeks): 94.0% | Semen Volume, change from baseline, LS mean difference (95% CI) vs. placebo ([3]; 1.0 mg): 1.4 mL | Sperm Morphology, change from baseline, LS mean difference (95% CI) vs. placebo ([3]; 1.0 mg): −4.1 % | Sperm Motility, change from baseline, LS mean difference (95% CI) vs. placebo ([3]; 1.0 mg): −1.2 % | Spermatozoa, change from baseline, LS mean difference (95% CI) vs. placebo ([3]; 1.0 mg): 270.1 (65.0, 10^6/ejaculate | Total Motile Sperm Count, change from baseline, LS mean difference (95% CI) vs. placebo ([3]; 1.0 mg): 127.7 (12.6, 10^6/ejaculate | Estradiol, Initial ([3]; 1.0 mg): 23.47 pg/mL | population with testosterone normalization ([3]; 1.0 mg): 89.1% | Estradiol, Change ([3]; 1.0 mg): -14.84 pg/mL | FSH increase ([3]; 1.0 mg): 8.282 mlU/mL | estradiol decrease ([3]; 1.0 mg): 14.8 pg/mL | mean LH increase ([3]; 1.0 mg): 5.209 mlU/mL | primary endpoint (≥75% of subjects with normalization of testosterone by week 24) ([3]; all leflutrozole treatment groups): met in all leflutrozole treatment groups | changes from baseline vs placebo in triglycerides, HbA1c, glucose and C-reactive protein ([3]; during the study, p>0.05): No statistically significant changes | insulin and HOMA-IR compared with placebo ([3]; leflutrozole treatment groups, none met statistical significance): Consistent decreases | semen volume improvement, LS mean difference (95% CI) ([3]; stated as across all active treatment arms): 1.4 (0.4, 2.3) mL | sperm count compared to placebo (in words) ([3]; weeks 12 and 20, all three treatment arms): increases were observed across all three treatment arms compared to placebo | IC50 [4]: > 50 µM | Papp A→B ([5]; read-out: apparent permeability, apical to basolateral): 54.5 ×10⁻⁶ cm/s | Papp B→A ([5]; read-out: apparent permeability, basolateral to apical): 23.2 ×10⁻⁶ cm/s | apparent permeability (in words) [6]: very high apparent permeability | contribution of efflux transporters such as P-glycoprotein [6]: no detectable contribution of efflux transporters | inhibition of P-glycoprotein [7]: not determined to be an inhibitor
